Experiments:
[1] = LNP size and polydispersity index by Malvern Zetasizer dynamic light scattering (CA HA modFlu mRNA LNPs); format: physicochemical; settings: DLS; for Size (nm): LNP of the ionizable lipid:cholesterol:DSPC:ALC-0159 about 46.3:42.7:9.4:1.6, N:P about 6:1, CA HA modFlu mRNA; for PDI: LNP with CA HA modFlu mRNA
Experimental: (§1) Lipid nanoparticles were prepared and tested according to the general procedures described in U.S. Pat. No. 9,737,619 (PCT Pub. No. WO2015/199952) and U.S. Pat. No. 10,166,298 (PCT Pub. No. WO 2017/075531) and PCT Pub. No. WO2020/146805. The novel ionizable lipids of the invention, cholesterol, distearoylphosphatidylcholine (DSPC) and ALC-0159 2-[(polyethylene glycol)-2000]-N,N ditetradecylacetamide were solubilized in ethanol at a molar ratio of about 46.3:42.7:9.4:1.6. Lipid nanoparticles were made by mixing the lipids containing organic phase with the mRNA containing aqueous phase using an N:P ratio of about 6:1. The mRNA was diluted in buffer. Syringe pumps were used to mix the ethanolic lipid solution with the mRNA aqueous solution. The ethanol was then removed, and the external buffer replaced with another buffer (e.g., Tris) by dialysis. Finally, the lipid nanoparticles were filtered.
(§2) Total RNA concentration and encapsulation efficiency was assessed using the RiboGreen RNA quantitation assay. RNA integrity pre and post formulation was monitored by Agilent Fragment Analyzer capillary gel electrophoresis. Malvern Zetasizer dynamic light scattering (DLS) was used to determine LNP size and polydispersity index (PDI). In vitro expression of the novel ionizable lipid nanoparticles was assessed in HEK293F and Hela cells similar to described in Example 72. Nuclear count and identification of cells stained positive for gene of interest was done on an Opera Phenix high content imager (PerkinElmer, USA).

Hela cells = assay: In vitro expression of novel ionizable lipid nanoparticles, high content imaging (CA HA modFlu mRNA); format: cell-based; settings: LNP with CA HA modFlu mRNA
Experimental: (§3) Plated Hek293T or Hela cells were dosed with lipid nanoparticles in a total volume of 40 μl cell culture media and incubated overnight at 37° C. and 5% CO2. After fixation with 4% paraformaldehyde in PBS cells were washed in PBS containing 0.3% Triton-X100 and 3% BSA (w/v), followed by nuclear staining with Hoechst and antibody staining for the encoded gene of interest. Nuclear count and identification of cells stained positive for gene of interest was done on an Opera Phenix high content imager (PerkinElmer, USA).
as §1, §2

HEK293F cells = assay: as above; format: cell-based; settings: LNP with CA HA modFlu mRNA
Experimental: as §3, §1, §2

[2] = Encapsulation efficiency, RiboGreen RNA quantitation assay (CA HA modFlu mRNA LNPs); format: physicochemical; settings: LNP with CA HA modFlu mRNA
Experimental: as §1, §2

SMILES	Size (nm) [1] [nm]	PDI [1]	EC50 Hela (ng/well) (Hela cells)	EC50 Hek293F (ng/well) (HEK293F cells)	EE % [2] [%]
CCCCCCCC(CCCCCCC)C(=O)O[C@@H]1CC2(CCN(CCO)CC2)C[C@H]1OC(=O)C(CCCCCCC)CCCCCCC (racemic) [Example 52, rac-(2R,3R)-8-(2-hydroxyethyl)-8-azaspiro[4.5]decane-2,3-diyl bis(2-heptylnonanoate)]	66	0.088	11.0	3.3	99
CCCCCCCC(CCCCCCC)C(=O)O[C@@H]1CC2(CCN(CCCO)C2)C[C@H]1OC(=O)C(CCCCCCC)CCCCCCC (racemic) [Example 53, rac-(7R,8R)-2-(3-hydroxypropyl)-2-azaspiro[4.4]nonane-7,8-diyl bis(2-heptylnonanoate)]	89	0.090	29.5	2.3	94
CCCCCCCC(CCCCCCC)C(=O)O[C@@H]1CC2(CCN(CCCO)CC2)C[C@H]1OC(=O)C(CCCCCCC)CCCCCCC (racemic) [Example 54, rac-(2R,3R)-8-(3-hydroxypropyl)-8-azaspiro[4.5]decane-2,3-diyl bis(2-heptylnonanoate)]	71	0.101	3.6	1.5	98
CCCCCCCC(CCCCCCC)C(=O)O[C@@H]1CC2(CCN(CCCNc3c(NC)c(=O)c3=O)CC2)C[C@H]1OC(=O)C(CCCCCCC)CCCCCCC (racemic) [Example 55, rac-(2R,3R)-8-(3-((2-(methylamino)-3,4-dioxocyclobut-1-en-1-yl)amino)propyl)-8-azaspiro[4.5]decane-2,3-diyl bis(2-heptylnonanoate)]	65	0.124	45.0	21.4	100
CCCCCCCC(CCCCCCC)C(=O)O[C@@H]1CC2(CCN(CCCCCO)CC2)C[C@H]1OC(=O)C(CCCCCCC)CCCCCCC (racemic) [Example 56, rac-(2R,3R)-8-(5-hydroxypentyl)-8-azaspiro[4.5]decane-2,3-diyl bis(2-heptylnonanoate)]	81	0.063	0.96	0.60	98
CCCCCCCCC(CCCCCCCC)C(=O)O[C@@H]1CC2(CCN(CCCCO)CC2)C[C@H]1OC(=O)C(CCCCCCCC)CCCCCCCC (racemic) [Example 59, rac-(2R,3R)-8-(4-hydroxybutyl)-8-azaspiro[4.5]decane-2,3-diyl bis(2-octyldecanoate)]	80	0.091	34.6	2.3	97
CCCCCCCCCCCCC(CCCCCCC)C(=O)O[C@@H]1CC2(CCN(CCCCO)CC2)C[C@H]1OC(=O)C(CCCCCCC)CCCCCCCCCCCC (mixture of isomers) [Example 60, rac-(2R,3R)-8-(4-hydroxybutyl)-8-azaspiro[4.5]decane-2,3-diyl bis(2-heptyltetradecanoate)]	94	0.117	>50	1.6	98
CCCCCCCCC(CCCCCC)C(=O)O[C@@H]1CC2(CCN(CCCCO)CC2)C[C@H]1OC(=O)C(CCCCCC)CCCCCCCC (mixture of isomers) [Example 61, rac-(2R,3R)-8-(4-hydroxybutyl)-8-azaspiro[4.5]decane-2,3-diyl bis(2-hexyldecanoate)]	77	0.094	1.6	1.0	99
CCCCCCCC(CCCCCCC)OC(=O)CCC(=O)O[C@@H]1CC2(CCN(CCCCO)CC2)C[C@H]1OC(=O)CCC(=O)OC(CCCCCCC)CCCCCCC (racemic) [Example 62, rac-O,O′-((2R,3R)-8-(4-hydroxybutyl)-8-azaspiro[4.5]decane-2,3-diyl) di(pentadecan-8-yl) disuccinate]	161	0.090	1.0	0.36	99
CCCCCCCC(CCCCCCC)OC(=O)CCCCCC(=O)O[C@@H]1CC2(CCN(CCCCO)CC2)C[C@H]1OC(=O)CCCCCC(=O)OC(CCCCCCC)CCCCCCC (racemic) [Example 63, rac-O′^1,O^1-((2R,3R)-8-(4-hydroxybutyl)-8-azaspiro[4.5]decane-2,3-diyl) 7,7′-di(pentadecan-8-yl) di(heptanedioate)]	107	0.060	0.58	0.39	99
CCCCCCCC(CCCCCCC)C(=O)OCCCCCC(=O)O[C@@H]1CC2(CCN(CCCCO)CC2)C[C@H]1OC(=O)CCCCCOC(=O)C(CCCCCCC)CCCCCCC (racemic) [Example 64, rac-(((2R,3R)-8-(4-hydroxybutyl)-8-azaspiro[4.5]decane-2,3-diyl)bis(oxy))bis(6-oxohexane-6,1-diyl) bis(2-heptylnonanoate)]	110	0.056	0.69	0.64	99
CCCCCCCCC(CCCCC)C(=O)O[C@@H]1CC2(CCN(CCCCO)CC2)C[C@H]1OC(=O)C(CCCCC)CCCCCCCC (mixture of isomers) [Example 65, rac-(2R,3R)-8-(4-hydroxybutyl)-8-azaspiro[4.5]decane-2,3-diyl bis(2-pentyldecanoate)]	123	0.038	0.57	0.35	97
CCCCCCCCC(CCCCCCC)C(=O)O[C@@H]1CC2(CCN(CCCCO)CC2)C[C@H]1OC(=O)C(CCCCCCC)CCCCCCCC (mixture of isomers) [Example 66, rac-(2R,3R)-8-(4-hydroxybutyl)-8-azaspiro[4.5]decane-2,3-diyl bis(2-heptyldecanoate)]	78	0.146	2.2	1.1	97
CCCCCCCCCC(CCCCCC)C(=O)O[C@@H]1CC2(CCN(CCCCO)CC2)C[C@H]1OC(=O)C(CCCCCC)CCCCCCCCC (mixture of isomers) [Example 67, rac-(2R,3R)-8-(4-hydroxybutyl)-8-azaspiro[4.5]decane-2,3-diyl bis(2-hexylundecanoate)]	89	0.127	2.0	1.4	96
CCCCCCCCC(CCCCCC)C(=O)O[C@@H]1CC2(CCN(CCCCO)CC2)C[C@H]1OC(=O)C(CC)CCCCCCC (mixture of isomers) [Example 70, rac-(2R,3R)-3-((2-ethylnonanoyl)oxy)-8-(4-hydroxybutyl)-8-azaspiro[4.5]decan-2-yl 2-hexyldecanoate]	116	0.110	1.2	3.0	98
CCCCCCCC(CCCCCCC)C(=O)O[C@@H]1CC2(CCN(CCCCO)CC2)C[C@H]1OC(=O)C(CCCCCCC)CCCCCCC (single isomer, unassigned) [Example 57, (2R*,3R*)-8-(4-hydroxybutyl)-8-azaspiro[4.5]decane-2,3-diyl bis(2-heptylnonanoate)]	74	0.118	4.7	2.9	99
CCCCCCCC(CCCCCCC)C(=O)O[C@H]1CC2(CCN(CCCCO)CC2)C[C@@H]1OC(=O)C(CCCCCCC)CCCCCCC (single isomer, unassigned) [Example 58, (2S*,3S*)-8-(4-hydroxybutyl)-8-azaspiro[4.5]decane-2,3-diyl bis(2-heptylnonanoate)]	79	0.125	1.7	1.6	98
CCCCCCCCC(C(=O)OCC(COC(=O)C(CCCCCCCC)C1CCC1)N1CCC2(CCN(CCCCO)CC2)CC1)C1CCC1 (stereo not drawn) [Example 4, 2-(9-(4-hydroxybutyl)-3,9-diazaspiro[5.5]undecan-3-yl)propane-1,3-diyl bis(2-cyclobutyldecanoate)]	97	0.170	>50	46.9	98

— patent publication US20250367129A1, “Lipid Compounds and Uses Thereof” (Pfizer Inc., priority 2022, published 2025)
